Test results taken from patent publication US7511041B2, “Fused azole-pyrimidine derivatives” (Bayer Pharmaceuticals Corporation, priority 2002, dated 2009).
Like-named read-outs stand apart in the source and are kept apart here.

What was measured:
[1] = biological target: T1, Recombinant human PI3Kγ (full length human PI3K p110γ) (Homo sapiens, UniProt P48736); test: Kinase assay of PI3Kγ (solid-phase lipid kinase assay); type: biochemical
T1 construct: full length human PI3K p110γ fused with a His6-tag at the C-terminus; His6 (C); purchased ALEXIS BIOCHEMICALS #201-055-C010; host or cells: S. frugiperda 9 insect cells
T1 sequence (P48736 whole entry, the tested form may be a part): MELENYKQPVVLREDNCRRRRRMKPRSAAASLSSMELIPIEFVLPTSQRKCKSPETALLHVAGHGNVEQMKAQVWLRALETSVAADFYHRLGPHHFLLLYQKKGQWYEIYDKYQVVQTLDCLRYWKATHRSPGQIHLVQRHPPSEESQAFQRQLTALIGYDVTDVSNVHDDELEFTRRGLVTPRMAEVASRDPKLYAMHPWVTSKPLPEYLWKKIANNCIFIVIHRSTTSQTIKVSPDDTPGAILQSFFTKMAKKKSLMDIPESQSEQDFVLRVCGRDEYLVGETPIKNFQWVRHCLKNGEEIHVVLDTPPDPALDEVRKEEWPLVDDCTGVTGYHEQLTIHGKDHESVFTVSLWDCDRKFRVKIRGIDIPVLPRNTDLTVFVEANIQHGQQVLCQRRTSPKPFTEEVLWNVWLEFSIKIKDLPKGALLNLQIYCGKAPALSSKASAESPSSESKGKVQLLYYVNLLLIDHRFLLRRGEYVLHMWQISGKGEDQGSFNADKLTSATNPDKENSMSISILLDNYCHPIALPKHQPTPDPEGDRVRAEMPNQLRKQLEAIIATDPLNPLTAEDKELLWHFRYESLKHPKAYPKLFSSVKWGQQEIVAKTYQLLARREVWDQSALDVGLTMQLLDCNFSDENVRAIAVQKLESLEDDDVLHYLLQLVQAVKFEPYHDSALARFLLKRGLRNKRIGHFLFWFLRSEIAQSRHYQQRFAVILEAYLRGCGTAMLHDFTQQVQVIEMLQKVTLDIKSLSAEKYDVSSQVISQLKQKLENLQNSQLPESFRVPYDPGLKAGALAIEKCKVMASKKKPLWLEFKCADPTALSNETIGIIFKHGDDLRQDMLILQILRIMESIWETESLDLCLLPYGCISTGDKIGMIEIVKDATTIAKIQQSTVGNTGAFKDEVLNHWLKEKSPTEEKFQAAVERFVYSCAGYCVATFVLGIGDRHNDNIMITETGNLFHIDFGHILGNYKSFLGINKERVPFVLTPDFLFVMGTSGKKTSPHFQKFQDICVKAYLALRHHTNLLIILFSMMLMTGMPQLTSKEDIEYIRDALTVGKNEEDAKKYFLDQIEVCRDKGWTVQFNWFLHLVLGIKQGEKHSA

[2] = in vitro PI3K-γ inhibitory activity, class symbols A-D, read-out: in vitro PI3K-gamma
[3] = in vitro PI3K-γ inhibitory activity, class symbols, read-out: in vitro PI3K-gamma
[4] = Table 1, isozyme not given, read-out: in vitro

IC50 [1, 2] [nM]	melting point	IC50 [1, 3] [nM]	IC50 [1, 4] [nM]	SMILES
	307 to 308 °C		> 2000	COc1cc2c(cc1OC)C1=NCCN1C(/C=C(\O)c1ccc(C#N)cc1)=N2 [Example 1-187]
	239 °C	100 to 500		Cl.O=C(NC1=Nc2cc(OCCn3cccc3)ccc2C2=NCCN12)c1cccnc1 [Example 2-196]
	> 280 °C	100 to 500		Cl.O=C(NC1=Nc2c(Cl)cccc2C2=NCCN12)c1cccnc1 [Example 2-103]
	> 300 °C	100 to 500		COc1ccc2c(c1)C1=NCCN1C(NC(=O)c1cccnc1)=N2.Cl [Example 2-93]
	186 to 188 °C		500 to 2000	O/C(=C\C1=Nc2cc(Cl)ccc2C2=NCCN12)c1ccccc1 [Example 1-190]
> 2000	279 to 281 °C			O=C(NC1=Nc2ccccc2C2=NCCN12)c1ccc([N+](=O)[O-])cc1 [Example 2-254]
	> 290 °C	< 100		Cc1cccc2c1N=C(NC(=O)c1ccc3[nH]cnc3c1)N1CCN=C21 [Example 2-109]
	208 to 210 °C		< 100	O/C(=C\C1=Nc2ccccc2C2=NCCN12)c1nccs1 [Example 1-154]
	263 to 266 °C	< 100		Nc1cncc(C(=O)NC2=Nc3ccccc3C3=NCCN23)c1 [Example 2-144]
	210 °C (dec.)	< 100		COc1cc(OC)c2c(c1)C1=NCCN1C(NC(=O)c1ccc3[nH]cnc3c1)=N2 [Example 2-72]
> 2000	253 to 255 °C			COC(=O)c1ccc(C(=O)NC2=Nc3ccccc3C3=NCCN23)cc1 [Example 2-273]
> 2000	270 °C (dec.)			C[C@@H]1CN=C2c3ccccc3N=C(NC(=O)c3cccnc3)N21.Cl [Example 2-366]

Continued, compound first:

SMILES	IC50 [1, 2] [nM]	melting point	IC50 [1, 3] [nM]	IC50 [1, 4] [nM]
CC(C)C(=O)NC1=Nc2ccccc2C2=NCCN12 [Example 2-330]	> 2000	104 to 105 °C		
Cl.O=C(NC1=Nc2cc(C(F)(F)F)ccc2C2=NCCN12)c1cccnc1 [Example 2-34]		275 °C	< 100	
O=[N+]([O-])c1ccc2c(c1)C1=NCCN1C(/C=C(\O)c1ccccc1)=N2 [Example 1-191]		259 to 262 °C		> 2000
Cl.O=C1NCC(COc2ccc3c(c2)N=C(NC(=O)c2cccnc2)N2CCN=C32)O1 (stereo not shown) [Example 2-204]	100 to 500	265 to 269 °C (dec.)		
Cl.O=C(O)CCCc1ccc2c(n1)N=C(/C=C(\O)c1cccnc1)N1CCN=C21 [Example 1-202]		285 °C (dec.)		100 to 500
O=C(NC1=Nc2ccccc2C2=NCCN12)c1csc(-c2ccncc2)n1 [Example 2-321]	> 2000	281 °C (dec.)		
CNc1ccc(/C(O)=C/C2=Nc3cc(OC)c(OC)cc3C3=NCCN23)cn1 [Example 1-52]		321 to 325 °C		100 to 500
O=C(NC1=Nc2cc(N3CCOCC3)ccc2C2=NCCN12)c1ccc2[nH]cnc2c1 [Example 2-10]		250 °C (dec.)	100 to 500	
COc1cc2c(cc1OC)C1=NCCN1C(NC(=O)c1cncc(O)c1)=N2 [Example 2-54]		287 °C (dec.)	< 100	
O=C(NC1=Nc2ccc(Br)cc2C2=NCCN12)c1cccnc1 [Example 2-87]		228 °C	100 to 500	
O=C(NC1=Nc2ccccc2C2=NCCN12)C1CCCCC1 [Example 2-335]	> 2000	170 to 172 °C		
Cl.O=C(NC1=Nc2ccccc2C2=NCCN12)c1nccs1 [Example 2-188]		306 °C (dec.)	100 to 500	
NS(=O)(=O)c1ccc(C(=O)NC2=Nc3ccccc3C3=NCCN23)c(Cl)c1 [Example 2-249]	> 2000	240 °C (dec.)		
COc1cccc2c1N=C(NC(=O)c1cc3cccnc3nc1C)N1CCN=C21 [Example 2-126]		183 to 184 °C	< 100	
